According to patent US11111242B2, “Pyrrolo[2,3-d]pyrimidinyl, pyrrolo[2,3-b]pyrazinyl and pyrrolo[2,3-d]pyridinyl acrylamides” (Pfizer Inc., priority 2013, dated 2021):
Like-named read-outs stand apart in the source and are kept apart here.

What was measured:
[1] = system: IL-15 induced P-STAT5 in human PBMC (total lymphocytes); assay: PBMC IL-15 Induced P-STAT5; format: cell-based; settings: IL-15 stimulated, read-out: PBMC IL15-pSTAT5 IC50
How it was run: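 Thawed human PBMC in RPMI, preincubated 30 min at 37 °C, then IL-15 stimulated. Cells methanol-permeabilized (90%, on ice 20 min) and stained for phospho-STAT5. Read by flow cytometry, gated on total lymphocytes.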

[2] = system: IL-15 induced STAT5 phosphorylation in Human Whole Blood (total lymphocytes); assay: HWB IL-15 Induced STAT5 Phosphorylation Assay; format: cell-based; settings: IL-15 stimulated, read-out: HWB-IL15-pSTAT5 IC50
[3] = Stability of JAK3 covalent inhibitors in human whole blood; format: in vitro ADME; settings: 37° C.; for half-life at 1 μM: both sexes, read-out: Human blood stability t1/2; for Human blood stability t1/2: 1 μM
Procedure: Human blood was collected from one male and one female healthy subjects at the Occupational Health & Wellness Center at Pfizer, Groton, Conn. and pooled for each study. Both rat and human blood was collected freshly into K2-EDTA tubes and kept on ice. An aliquot of the blood was transferred to microtubes and pre-warmed for 10 min at 37° C. using a heat block. […] An aliquot of the incubation mixture was removed at designated time points during the course of the incubation, mixed with an aliquot of acetonitrile containing an internal standard, vortexed and centrifuged. The resulting supernatants were removed and subjected to LC-MS/MS analyses to determine parent compound concentrations. Peak area ratios of the parent compound vs the internal standard were used to determine the % of parent compound remaining vs incubation time.

JAK3 enzyme = JAK3 enzyme (Homo sapiens (Human), UniProt P52333); assay: JAK Caliper Enzyme Assay at 4 μM or 1 mM ATP; format: biochemical
Procedure: JAK Caliper Enzyme Assay at 4 μM or 1 mM ATP
Test article was solubilized in dimethyl sulfoxide (DMSO) to a stock concentration of 30 mM. An 11-point half log dilution series was created in DMSO with a top concentration of 600 μM. […] The compound plates were diluted 1 to 60 resulting in a top final assay compound concentration of 10 μM and a 2% DMSO concentration.
Test article and assay controls were added to a 384-well plate. Reaction mixtures contained 20 mM HEPES, pH 7.4, 10 mM magnesium chloride, 0.01% bovine serum albumin (BSA), 0.0005% Tween 20, 4 μM or 1 mM ATP and 1 μM peptide substrate. […] The assays were initiated by the addition 1 nM JAK3 enzyme and were incubated at room temperature 75 minutes for JAK3. Enzyme concentrations and incubation times were optimized for each new enzyme preps and were modified slightly over time to ensure 20%-30% phosphorylation. The assays were stopped with a final concentration of 10 mM EDTA, 0.1% Coating Reagent and 100 mM HEPES, pH=7.4. The assay plates were placed on a Caliper Life Science Lab Chip 3000 (LC3000) instrument, and each well was sampled using appropriate separation conditions to measure the unphosphorylated and phosphorylated peptide.

[4] = read-out: JAK3 (1 mM ATP) IC50, 1 mM ATP

JAK3 enzyme, sequence (P52333 whole entry, species assumed): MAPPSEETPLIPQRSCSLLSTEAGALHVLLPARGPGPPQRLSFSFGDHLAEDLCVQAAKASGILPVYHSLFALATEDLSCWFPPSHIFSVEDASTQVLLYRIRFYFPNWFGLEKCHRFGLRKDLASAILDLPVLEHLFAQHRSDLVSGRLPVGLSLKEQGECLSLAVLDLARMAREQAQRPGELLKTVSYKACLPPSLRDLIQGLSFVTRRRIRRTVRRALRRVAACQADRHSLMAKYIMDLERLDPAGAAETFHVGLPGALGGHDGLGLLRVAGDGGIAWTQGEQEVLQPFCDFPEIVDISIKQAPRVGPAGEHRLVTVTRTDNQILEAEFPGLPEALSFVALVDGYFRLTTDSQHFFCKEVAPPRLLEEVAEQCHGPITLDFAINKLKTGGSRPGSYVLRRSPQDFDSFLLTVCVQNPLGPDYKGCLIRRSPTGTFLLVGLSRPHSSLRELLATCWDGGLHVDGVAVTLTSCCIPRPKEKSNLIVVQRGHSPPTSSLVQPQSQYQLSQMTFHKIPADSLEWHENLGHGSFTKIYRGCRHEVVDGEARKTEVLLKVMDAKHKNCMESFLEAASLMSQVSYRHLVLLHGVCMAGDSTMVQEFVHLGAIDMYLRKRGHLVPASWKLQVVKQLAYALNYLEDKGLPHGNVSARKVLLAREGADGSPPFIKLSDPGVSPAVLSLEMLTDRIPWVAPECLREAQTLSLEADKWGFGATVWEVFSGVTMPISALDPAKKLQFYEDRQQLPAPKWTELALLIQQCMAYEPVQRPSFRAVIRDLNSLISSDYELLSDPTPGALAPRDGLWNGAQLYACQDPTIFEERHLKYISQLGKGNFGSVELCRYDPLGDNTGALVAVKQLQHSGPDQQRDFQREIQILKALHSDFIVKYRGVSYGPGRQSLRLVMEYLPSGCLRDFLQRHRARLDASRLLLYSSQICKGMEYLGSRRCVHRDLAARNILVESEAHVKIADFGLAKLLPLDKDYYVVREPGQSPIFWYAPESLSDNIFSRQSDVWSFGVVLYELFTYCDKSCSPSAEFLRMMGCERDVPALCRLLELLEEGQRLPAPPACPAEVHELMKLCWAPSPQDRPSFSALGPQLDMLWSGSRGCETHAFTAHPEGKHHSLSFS

Compound | IC50 ([2]; Lymphocyte) | IC50 [1] | also measured
C=CC(=O)N1C[C@@H](Nc2ncnc3[nH]ccc23)[C@@H]2CC[C@H]1C2 (racemic) [Example 116, Rac-1-((1R,4R,5S)-4-(7H-pyrrolo[2,3-d]pyrimidin-4-ylamino)-2-azabicyclo[3.2.1]octan-2-yl)prop-2-en-1-one] | > 10000 nM | – | IC50 ([1]; Homo sapiens, PBMC): > 10000 nM; half-life at 1 μM [3]: 4.68 h
C=CC(=O)N1CCC[C@@H](Nc2ncnc3[nH]cc(-c4ccc(C(=O)NC5CC5)c(Cl)c4)c23)C1 [Example 31, 4-(4-{[(3R)-1-acryloylpiperidin-3-yl]amino}-7H-pyrrolo[2,3-d]pyrimidin-5-yl)-2-chloro-N-cyclopropylbenzamide] | – | – | half-life at 1 μM [3]: > 6 h
C=CC(=O)N1CC[C@@H](Nc2cnc3[nH]cc(C(=O)NC(C)(C)C)c3n2)C[C@H]1C (single isomer, unassigned) [Example 342] | – | – | half-life at 1 μM [3]: > 6 h
C=CC(=O)N1CCC(Oc2cnc3[nH]cc(-c4cnn(C)c4)c3n2)CC1 [Example 218, 1-(4-{[7-(1-methyl-1H-pyrazol-4-yl)-5H-pyrrolo[2,3-b]pyrazin-2-yl]oxy}piperidin-1-yl)prop-2-en-1-one] | – | 345 nM | IC50 [2]: 6190 nM; Human blood stability t1/2 [3]: >6 h
C=CC(=O)N1CC2CCN(c3cnc4[nH]cc(C(=O)NC(C)C)c4n3)C2C1 (centres unmarked) [Example 178, 2-(5-acryloylhexahydropyrrolo[3,4-b]pyrrol-1(2H)-yl)-N-(propan-2-yl)-5H-pyrrolo[2,3-b]pyrazine-7-carboxamide] | – | 208 nM | IC50 [2]: 2560 nM; Human blood stability t1/2 [3]: 2.38 h
C=CC(=O)N1CCN(c2cnc3[nH]cc(C(=O)NC(C)C)c3n2)C[C@H]1CC [Example 311, 2-[(3R)-4-acryloyl-3-ethylpiperazin-1-yl]-N-(propan-2-yl)-5H-pyrrolo[2,3-b]pyrazine-7-carboxamide] | – | 696 nM | IC50 (JAK3 enzyme; [4]): 220 nM
C=CC(=O)N1CCC(Nc2cnc3[nH]cc(C(=O)N[C@@H](C)C(=O)NCCC#N)c3n2)CC1 [Example 264, 2-[(1-acryloylpiperidin-4-yl)amino]-N-{(2S)-1-[(2-cyanoethyl)aminop]-oxopropan-2-yl}-5H-pyrrolo[2,3-b]pyrazine-7-carboxamide] | – | 4480 nM | IC50 (JAK3 enzyme; read-out: JAK3 (4 μM ATP) IC50, 4 μM ATP): 2.6 nM; IC50 (JAK3 enzyme; [4]): 226 nM
C=CC(=O)N1CC[C@H](Nc2cnc3[nH]cc(C(=O)NC(C)(C)C)c3n2)C[C@@H]1C [Example 341, 2-(((2S,4S)-1-Acryloyl-2-methylpiperidin-4-yl)amino)-N-(tert-butyl)-5H-pyrrolo[2,3-b]pyrazine-7-carboxamide] | – | – | Human blood stability t1/2 [3]: >6 h
C=CC(=O)N1CCC(Nc2cnc3[nH]cc(C(=O)NC(C)(C)C)c3n2)CC1 [Example 266, 2-[(1-acryloylpiperidin-4-yl)amino]-N-tert-butyl-5H-pyrrolo[2,3-b]pyrazine-7-carboxamide] | 386 nM | 71 nM | –
C=CC(=O)N1CC[C@@H](Nc2cnc3[nH]cc(C(=O)NC(C)C)c3n2)[C@H](O)C1 [Example 196, 2-{[(3R,4R)-1-acryloyl-3-hydroxypiperidin-4-yl]amino}-N-(propan-2-yl)-5H-pyrrolo[2,3-b]pyrazine-7-carboxamide] | 3290 nM | 1490 nM | –
C=CC(=O)N1CCC(Nc2cnc3[nH]cc(C(=O)NC(C)(C)CC)c3n2)CC1 [Example 276, 2-[(1-acryloylpiperidin-4-yl)amino]-N-(2-methylbutan-2-yl)-5H-pyrrolo[2,3-b]pyrazine-7-carboxamide] | 487 nM | 57.8 nM | –
C=CC(=O)N1CCC(Nc2cnc3[nH]cc(C(=O)NCC(C)(C)C)c3n2)CC1 [Example 271, 2-[(1-acryloylpiperidin-4-yl)amino]-N-(2,2-dimethylpropyl)-5H-pyrrolo[2,3-b]pyrazine-7-carboxamide] | 790 nM | – | IC50 ([1]; Homo sapiens, PBMC): 135 nM
C=CC(=O)N1C[C@H](Nc2ncnc3[nH]ccc23)CC[C@@H]1CC (single isomer, unassigned) [Example 9] | 578 nM | – | IC50 ([1]; Homo sapiens, PBMC): 35.5 nM
C=CC(=O)N1C[C@H](Nc2ncnc3[nH]ccc23)C[C@H](N(C)C)C1 [Example 57, 1-((3R,5S)-3-((7H-Pyrrolo[2,3-d]pyrimidin-4-yl)amino)-5-(dimethylamino)piperidin-1-yl)prop-2-en-1-one] | 2610 nM | 1230 nM | –
C=CC(=O)N1CCN(c2cnc3[nH]cc(C(=O)NC(C)C)c3n2)C[C@@H]1CC [Example 299, 2-[(3S)-4-acryloyl-3-ethylpiperazin-1-yl]-N-(propan-2-yl)-5H-pyrrolo[2,3-b]pyrazine-7-carboxamide] | 1380 nM | 225 nM | –
C=CC(=O)N1CCC(Nc2cnc3[nH]cc(C(=O)N[C@@H](C)COC)c3n2)CC1 [Example 277, 2-[(1-acryloylpiperidin-4-yl)amino]-N-[(2S)-1-methoxypropan-2-yl]-5H-pyrrolo[2,3-b]pyrazine-7-carboxamide] | 83.2 nM | – | IC50 ([1]; Homo sapiens, PBMC): 103 nM
C=CC(=O)N1CCC[C@H]1CNc1cnc2[nH]cc(C(=O)NC(C)C)c2n1 [Example 177, 2-({[(2S)-1-acryloylpyrrolidin-2-yl]methyl}amino)-N-(propan-2-yl)-5H-pyrrolo[2,3-b]pyrazine-7-carboxamide] | 804 nM | – | IC50 ([1]; Homo sapiens, PBMC): 108 nM
C=CC(=O)N1C[C@@H](C)C[C@@H](Nc2ncnc3[nH]ccc23)C1 (single isomer, unassigned) [Example 14] | 538 nM | 114 nM | –
C=CC(=O)N1CCC[C@@H](Nc2ncnc3[nH]cc(C#N)c23)C1 [Example 45, 4-{[(3R)-1-acryloylpiperidin-3-yl]amino}-7H-pyrrolo[2,3-d]pyrimidine-5-carbonitrile] | 1010 nM | 348 nM | –
C=CC(=O)N1CCC(Nc2cnc3[nH]cc(-c4cncc(F)c4)c3n2)CC1 [Example 212, 1-(4-{[7-(5-fluoropyridin-3-yl)-5H-pyrrolo[2,3-b]pyrazin-2-yl]amino}piperidin-1-yl)prop-2-en-1-one] | 2080 nM | 154 nM | –
C=CC(=O)N1C[C@@H](O)C[C@@H](Nc2ncnc3[nH]cc(Cl)c23)C1 [Example 162, 1-{(3R,5S)-3-[(5-Chloro-7H-pyrrolo[2,3-d]pyrimidin-4-yl)amino]-5-hydroxypiperidin-1-yl}prop-2-en-1-one] | 1000 nM | 361 nM | half-life at 1 μM [3]: > 6 h
C=CC(=O)N1CCC(Nc2cnc3[nH]cc(C(=O)NC4CC(F)C4)c3n2)CC1 (centres unmarked) [Example 243, 2-[(1-acryloylpiperidin-4-yl)amino]-N-(3-fluorocyclobutyl)-5H-pyrrolo[2,3-b]pyrazine-7-carboxamide] | 617 nM | 155 nM | –
C=CC(=O)N1CCC(Nc2cnc3[nH]cc(C(=O)NCCCC(F)(F)F)c3n2)CC1 [Example 240, 2-[(1-acryloylpiperidin-4-yl)amino]-N-(4,4,4-trifluorobutyl)-5H-pyrrolo[2,3-b]pyrazine-7-carboxamide] | 442 nM | 83.8 nM | –
C=CC(=O)N1C[C@H](Nc2ncnc3[nH]cc(Cl)c23)CC[C@@H]1C [Example 18, 1-((2S,5R)-5-((5-Chloro-7H-pyrrolo[2,3-d]pyrimidin-4-yl)amino)-2-methylpiperidin-1-yl)prop-2-en-1-one] | 555 nM | 31.5 nM | –
C=CC(=O)N1CC[C@H](Nc2cnc3[nH]cc(C(=O)NC(C)(C)C)c3n2)C[C@@H]1C (racemic) [Example 340] | – | – | half-life at 1 μM [3]: > 6 h
C=CC(=O)N1CCC(Nc2cnc3[nH]cc(C(=O)NC(C)C4CC4)c3n2)CC1 (centres unmarked) [Example 288, 2-[(1-acryloylpiperidin-4-yl)amino]-N-(1-cyclopropylethyl)-5H-pyrrolo[2,3-b]pyrazine-7-carboxamide] | 358 nM | – | IC50 ([1]; Homo sapiens, PBMC): 44.4 nM
C=CC(=O)N1CCC(Nc2cnc3[nH]cc(C(=O)NC(C)C)c3n2)CC1 [Example 168, 2-[(1-acryloylpiperidin-4-yl)amino]-N-(propan-2-yl)-5H-pyrrolo[2,3-b]pyrazine-7-carboxamide] | 136 nM | – | IC50 ([1]; Homo sapiens, PBMC): 37.1 nM
C=CC(=O)N1CCC(Nc2cnc3[nH]cc(-c4cccnc4)c3n2)CC1 [Example 205, 1-(4-{[7-(pyridin-3-yl)-5H-pyrrolo[2,3-b]pyrazin-2-yl]amino}piperidin-1-yl)prop-2-en-1-one] | 1880 nM | 219 nM | –
C=CC(=O)N1CC[C@H](C)[C@@H](Nc2ncnc3[nH]ccc23)C1 (racemic) [Example 50, 1-[(3R,4S)-4-methyl-3-(7H-pyrrolo[2,3-d]pyrimidin-4-ylamino)piperidin-1-yl]prop-2-en-1-one] | 926 nM | – | IC50 ([1]; Homo sapiens, PBMC): 202 nM
